Key:
liver tissue = assay: DNA fragmentation assay of liver tissue from acetaminophen-treated mice; assay type: in vivo; conditions: without pre-exposure to GSPE
Protocol: (§1) Trials of the efficacy of GSPE in preventing acetaminophen toxicity were performed using mice as test subjects. The GSPE used in the subject trials is a standardized water-ethanol extract from red grape seeds, identified as IH636 by InterHealth Nutraceuticals, Inc., of Concord, Calif. The dosage used in the subject trials was 100 mg of GSPE per kg of body weight, daily for three or seven days. This dosage is equivalent to about […] of body weight, based on the following formula from the CRC Handbook of Toxicology, Delanko M. J. and Hollinger M. A. eds., CRC Press 1995, p. 654:
(§2) GSPE was dissolved in phosphate-buffered saline solution and the solution was administered orally. Acetaminophen then was administered intraperitoneally, as a single toxic dose, in dosage of either 400 or 500 mg/kg. These dosage levels are equivalent to approximately 10 grams for normal healthy adults and 4 to 6 grams for alcoholics, levels that have been found toxic for humans. Twenty-four hours after administration of the acetaminophen, blood samples were removed from the subjects and analyzed for serum alanine aminotransferase activity, a well-known biomarker of liver toxicity. Liver samples also were taken and analyzed them for apoptotic and necrotic cell death DNA damage and gene expression.

[1] = system: serum alanine aminotransferase activity; assay: serum alanine aminotransferase (ALT) activity in acetaminophen-treated mice; assay type: in vivo; conditions: no pre-exposure to GSPE, 24 h
Protocol: as §1, §2

liver sections = liver sections at 400× magnification (histology); assay type: in vivo, mice; conditions: acetaminophen 500 mg/kg without GSPE pre-treatment; FIG. 11
Protocol: as §1
FIGS. 9 through 12 show comparison liver sections from test subjects at 400× magnification. FIGS. 9 and 10 show normal liver sections from test subjects not given acetaminophen.

mice = assay: number of deaths of mice treated with acetaminophen and GSPE; assay type: in vivo; conditions: without pre-exposure to GSPE
Protocol: as §1, §2

humans = conditions: normal healthy adults; cited from earlier work

Question: For `CC(=O)Nc1ccc(O)cc1` [acetaminophen, N-acetyl-p-amino phenol], which DNA fragmentation (liver tissue; acetaminophen 400 mg/kg) is on record?
Answer: about 3.5 times that of the control group

Question: And the DNA fragmentation (liver tissue; acetaminophen 500 mg/kg)?
Answer: about 4.8 times that of the control group

Question: What about the “serum ALT” value ([1]; acetaminophen 400 mg/kg i.p.) of the same compound?
Answer: about 22,000 U/L

Question: And the “serum ALT” value ([1]; acetaminophen 500 mg/kg i.p.)?
Answer: about 30,000 U/L

Question: What about the “liver section appearance indicating toxicity” value (liver sections) of the same compound?
Answer: whitening and browning of cells, indicating toxicity

Question: And the number of deaths (mice; acetaminophen 400 mg/kg)?
Answer: 2

Question: And the number of deaths (mice; acetaminophen 500 mg/kg)?
Answer: 4

Question: And the “dosage level found toxic for humans” value (humans)?
Answer: approximately 10 grams

Reference: patent US6245336A, “Prevention and treatment of acetaminophen toxicity with grape seed proanthocyanidin extract” (Dry Creek Nutrition, Inc., priority 1999, dated 2001)
